This passage reports IC50, Activity and viability results from ChEMBL document CHEMBL5214938, “Design, synthesis and biological evaluation of pteridine-7(8H)-one derivatives as potent and selective CDK4/6 inhibitors” (Bioorg Med Chem Lett, 2022).

The test system of one assay is A549. Briefly: Antiproliferative activity against human A549 cells assessed as growth inhibition by CCK-8 assay. Format: functional, cell-based.
Assay [1] has as its system HCT-116. Nature of the assay: Antiproliferative activity against human HCT-116 cells assessed as growth inhibition by CCK-8 assay. Format: functional, cell-based.
The test system of assay [2] is HT-29. Nature of the assay: Antiproliferative activity against human HT-29 cells assessed as growth inhibition by CCK-8 assay. Format: functional, cell-based.
Assay [3] deals with Cyclin-dependent kinase 4/cyclin D1 (Homo sapiens, UniProt P11802). Briefly: Inhibition of CDK4/cyclin D1 (unknown origin). Format: protein-complex assay.
Chain of Cyclin-dependent kinase 4/cyclin D1 (P11802 whole entry): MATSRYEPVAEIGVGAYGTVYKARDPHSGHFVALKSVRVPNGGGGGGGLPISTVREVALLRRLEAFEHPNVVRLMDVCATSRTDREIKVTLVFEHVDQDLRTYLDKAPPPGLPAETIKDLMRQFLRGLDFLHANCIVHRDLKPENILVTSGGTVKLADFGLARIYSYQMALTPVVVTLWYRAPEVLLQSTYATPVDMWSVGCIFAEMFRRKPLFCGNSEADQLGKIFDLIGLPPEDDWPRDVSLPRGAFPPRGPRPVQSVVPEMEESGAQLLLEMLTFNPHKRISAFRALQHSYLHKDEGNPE
Chain of Cyclin-dependent kinase 4/cyclin D1 (P24385 whole entry, further chain): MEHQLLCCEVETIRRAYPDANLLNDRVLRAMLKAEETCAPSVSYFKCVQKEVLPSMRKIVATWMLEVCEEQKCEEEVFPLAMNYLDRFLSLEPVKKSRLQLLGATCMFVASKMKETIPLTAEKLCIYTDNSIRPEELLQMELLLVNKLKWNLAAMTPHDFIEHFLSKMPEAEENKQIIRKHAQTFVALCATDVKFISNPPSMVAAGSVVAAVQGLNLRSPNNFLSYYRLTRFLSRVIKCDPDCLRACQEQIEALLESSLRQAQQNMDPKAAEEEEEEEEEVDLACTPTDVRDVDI
For another assay, the target named is CDK6/cyclin D1 (Homo sapiens, UniProt Q00534). Briefly: Inhibition of CDK6/cyclin D1 (unknown origin). Format: protein-complex assay.
Chain of CDK6/cyclin D1 (P24385 whole entry): as the sequence (P24385 whole entry, further chain) above
Chain of CDK6/cyclin D1 (Q00534 whole entry): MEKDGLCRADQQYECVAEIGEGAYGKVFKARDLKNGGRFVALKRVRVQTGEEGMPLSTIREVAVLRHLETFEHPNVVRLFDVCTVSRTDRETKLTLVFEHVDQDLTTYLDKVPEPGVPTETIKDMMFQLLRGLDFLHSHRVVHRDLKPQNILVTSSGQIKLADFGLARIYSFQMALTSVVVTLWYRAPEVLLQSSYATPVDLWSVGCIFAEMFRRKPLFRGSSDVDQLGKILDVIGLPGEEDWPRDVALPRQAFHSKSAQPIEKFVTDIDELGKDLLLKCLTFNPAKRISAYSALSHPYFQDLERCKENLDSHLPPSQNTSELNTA
A further assay deals with CDK7/Cyclin H/MNAT1 (Homo sapiens, UniProt P50613). Briefly: Inhibition of CDK7/cyclin H/MAT1 (unknown origin). Format: protein-complex assay.
Chain of CDK7/Cyclin H/MNAT1 (P51946 whole entry): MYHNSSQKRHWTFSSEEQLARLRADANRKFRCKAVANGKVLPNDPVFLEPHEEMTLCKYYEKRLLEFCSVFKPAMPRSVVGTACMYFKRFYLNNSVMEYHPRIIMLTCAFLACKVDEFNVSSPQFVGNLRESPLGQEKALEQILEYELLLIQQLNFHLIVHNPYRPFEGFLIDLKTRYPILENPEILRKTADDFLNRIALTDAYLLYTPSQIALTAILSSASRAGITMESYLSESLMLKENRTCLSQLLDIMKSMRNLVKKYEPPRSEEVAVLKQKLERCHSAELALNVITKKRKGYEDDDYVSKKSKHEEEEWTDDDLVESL
Chain of CDK7/Cyclin H/MNAT1 (P50613 whole entry): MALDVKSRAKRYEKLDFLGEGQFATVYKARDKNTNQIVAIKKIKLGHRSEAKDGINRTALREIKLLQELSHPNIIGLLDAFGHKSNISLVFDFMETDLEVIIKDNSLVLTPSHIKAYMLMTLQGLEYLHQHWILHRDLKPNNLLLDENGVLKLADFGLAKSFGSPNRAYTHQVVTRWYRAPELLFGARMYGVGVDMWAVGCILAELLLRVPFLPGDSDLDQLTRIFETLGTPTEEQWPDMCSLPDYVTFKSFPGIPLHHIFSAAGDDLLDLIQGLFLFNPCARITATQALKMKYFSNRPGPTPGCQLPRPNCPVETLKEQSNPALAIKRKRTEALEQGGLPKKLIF
Chain of CDK7/Cyclin H/MNAT1 (P51948 whole entry, further chain): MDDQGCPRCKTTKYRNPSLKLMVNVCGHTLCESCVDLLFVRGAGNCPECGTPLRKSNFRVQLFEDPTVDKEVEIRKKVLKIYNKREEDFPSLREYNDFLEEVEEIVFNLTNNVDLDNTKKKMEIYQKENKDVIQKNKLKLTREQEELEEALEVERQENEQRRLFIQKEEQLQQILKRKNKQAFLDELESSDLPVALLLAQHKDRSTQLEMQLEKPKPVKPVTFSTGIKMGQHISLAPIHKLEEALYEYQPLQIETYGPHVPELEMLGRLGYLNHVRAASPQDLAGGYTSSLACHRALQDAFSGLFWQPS
Assay [4] in a line: Inhibition of CDK1/cyclin B (unknown origin). On the set-up: species or system Homo sapiens.
The subject of assay [5] is MDA-MB-231. Briefly: Antiproliferative activity against human MDA-MB-231 cells assessed as growth inhibition by CCK-8 assay. It is filed as functional, cell-based.
The target in assay [6] is Cyclin-dependent kinase 2/cyclin E1 (Homo sapiens, UniProt P24941). Nature of the assay: Inhibition of CDK2/cyclin E1 (unknown origin). Format: protein-complex assay.
Another assay addresses CDK9/cyclin T1 (Homo sapiens, UniProt P50750). Nature of the assay: Inhibition of CDK9/cyclin T1 (unknown origin). It is filed as protein-complex assay.
The test system of assay [7] is HT-29. Nature of the assay: Induction of apoptosis in human HT-29 cells assessed as necrotic cells at 1 uM by flow cytometry (Rvb=2.35%). It is filed as functional.
In assay [8] the test system is HCT-116. Nature of the assay: Induction of apoptosis in human HCT-116 cells assessed as viable cells at 1 uM by flow cytometry (Rvb=86.61%). Format: functional. Particulars: read-out: Activity.
Assay [9] deals with MDA-MB-231. Briefly: Induction of apoptosis in human MDA-MB-231 cells assessed as necrotic cells at 5 uM by flow cytometry (Rvb=4.37%). Format: functional.
The subject of assay [10] is HCT-116. Nature of the assay: Induction of apoptosis in human HCT-116 cells assessed as necrotic cells at 5 uM by flow cytometry (Rvb=1.57%). Format: functional.
In assay [11] the test system is MDA-MB-231. Nature of the assay: Induction of apoptosis in human MDA-MB-231 cells assessed as early apoptotic cells at 5 uM by flow cytometry (Rvb=2.93%). It is filed as functional.
Assay [12] has as its system MDA-MB-231. Briefly: Induction of apoptosis in human MDA-MB-231 cells assessed as late apoptotic cells at 1 uM by flow cytometry (Rvb=0.72%). It is filed as functional.
Assay [13] deals with HT-29. Nature of the assay: Induction of apoptosis in human HT-29 cells assessed as late apoptotic cells at 1 uM by flow cytometry (Rvb=5.03%). Format: functional.
Assay [14] concerns HT-29. Nature of the assay: Induction of apoptosis in human HT-29 cells assessed as viable cells at 5 uM by flow cytometry (Rvb=83.94%). It is filed as functional. The settings on record: read-out: Activity.
The test system of assay [15] is MDA-MB-231. Nature of the assay: Induction of apoptosis in human MDA-MB-231 cells assessed as viable cells at 1 uM by flow cytometry (Rvb=92.08%). It is filed as functional. Particulars: read-out: Activity.
Assay [16] deals with HT-29. Briefly: Induction of apoptosis in human HT-29 cells assessed as late apoptotic cells at 5 uM by flow cytometry (Rvb=5.03%). It is filed as functional.
For assay [17], the system named is HCT-116. Nature of the assay: Induction of apoptosis in human HCT-116 cells assessed as early apoptotic cells at 1 uM by flow cytometry (Rvb=6.90%). It is filed as functional.
For assay [18], the system named is HT-29. Nature of the assay: Induction of apoptosis in human HT-29 cells assessed as early apoptotic cells at 5 uM by flow cytometry (Rvb=8.68%). It is filed as functional.
The subject of assay [19] is HCT-116. Briefly: Induction of apoptosis in human HCT-116 cells assessed as viable cells at 5 uM by flow cytometry (Rvb=86.61%). Format: functional. The settings on record: read-out: Activity.
For assay [20], the system named is MDA-MB-231. Briefly: Induction of apoptosis in human MDA-MB-231 cells assessed as necrotic cells at 1 uM by flow cytometry (Rvb=4.37%). Format: functional.
Assay [21] has as its system HCT-116. Briefly: Induction of apoptosis in human HCT-116 cells assessed as late apoptotic cells at 5 uM by flow cytometry (Rvb=4.92%). Format: functional.
Assay [22] has as its system HCT-116. Briefly: Induction of apoptosis in human HCT-116 cells assessed as early apoptotic cells at 5 uM by flow cytometry (Rvb=6.90%). It is filed as functional.
Assay [23] relates to HT-29. Nature of the assay: Induction of apoptosis in human HT-29 cells assessed as necrotic cells at 5 uM by flow cytometry (Rvb=2.35%). It is filed as functional.
Assay [24] deals with HCT-116. Briefly: Induction of apoptosis in human HCT-116 cells assessed as necrotic cells at 1 uM by flow cytometry (Rvb=1.57%). It is filed as functional.
For assay [25], the system named is MDA-MB-231. Briefly: Induction of apoptosis in human MDA-MB-231 cells assessed as late apoptotic cells at 5 uM by flow cytometry (Rvb=0.72%). It is filed as functional.
Assay [26] has as its system HT-29. Nature of the assay: Induction of apoptosis in human HT-29 cells assessed as early apoptotic cells at 1 uM by flow cytometry (Rvb=8.68%). It is filed as functional.
Assay [27] has as its system MDA-MB-231. Briefly: Induction of apoptosis in human MDA-MB-231 cells assessed as early apoptotic cells at 1 uM by flow cytometry (Rvb=2.93%). It is filed as functional.
Assay [28] has as its system MDA-MB-231. Nature of the assay: Induction of apoptosis in human MDA-MB-231 cells assessed as viable cells at 5 uM by flow cytometry (Rvb=92.08%). Format: functional. Particulars: read-out: Activity.
Assay [29] concerns HCT-116. Nature of the assay: Induction of apoptosis in human HCT-116 cells assessed as late apoptotic cells at 1 uM by flow cytometry (Rvb=4.92%). It is filed as functional.
In assay [30] the test system is HT-29. Nature of the assay: Induction of apoptosis in human HT-29 cells assessed as viable cells at 1 uM by flow cytometry (Rvb=83.94%). It is filed as functional. Particulars: read-out: Activity.

Chain of CDK9/cyclin T1 (O60563 whole entry): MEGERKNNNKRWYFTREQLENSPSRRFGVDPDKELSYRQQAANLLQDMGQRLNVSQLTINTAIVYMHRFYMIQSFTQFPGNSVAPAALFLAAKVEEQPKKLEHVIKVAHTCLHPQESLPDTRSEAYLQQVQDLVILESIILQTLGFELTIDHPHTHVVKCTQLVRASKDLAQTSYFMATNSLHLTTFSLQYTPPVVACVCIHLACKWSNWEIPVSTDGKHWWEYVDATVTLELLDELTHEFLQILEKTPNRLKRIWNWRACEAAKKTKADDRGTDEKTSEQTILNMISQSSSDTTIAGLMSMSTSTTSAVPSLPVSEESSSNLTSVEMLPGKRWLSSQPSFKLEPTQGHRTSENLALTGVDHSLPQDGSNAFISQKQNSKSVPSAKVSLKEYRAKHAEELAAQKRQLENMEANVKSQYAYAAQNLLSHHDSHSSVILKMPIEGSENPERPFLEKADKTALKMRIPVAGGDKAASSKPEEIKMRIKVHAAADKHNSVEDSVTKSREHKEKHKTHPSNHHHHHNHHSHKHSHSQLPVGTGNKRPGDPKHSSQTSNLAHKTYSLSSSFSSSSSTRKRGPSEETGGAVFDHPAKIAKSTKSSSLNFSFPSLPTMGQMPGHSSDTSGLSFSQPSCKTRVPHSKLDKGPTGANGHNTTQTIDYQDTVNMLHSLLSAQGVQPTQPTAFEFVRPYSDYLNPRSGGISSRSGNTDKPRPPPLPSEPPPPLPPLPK
Chain of CDK9/cyclin T1 (P50750 whole entry): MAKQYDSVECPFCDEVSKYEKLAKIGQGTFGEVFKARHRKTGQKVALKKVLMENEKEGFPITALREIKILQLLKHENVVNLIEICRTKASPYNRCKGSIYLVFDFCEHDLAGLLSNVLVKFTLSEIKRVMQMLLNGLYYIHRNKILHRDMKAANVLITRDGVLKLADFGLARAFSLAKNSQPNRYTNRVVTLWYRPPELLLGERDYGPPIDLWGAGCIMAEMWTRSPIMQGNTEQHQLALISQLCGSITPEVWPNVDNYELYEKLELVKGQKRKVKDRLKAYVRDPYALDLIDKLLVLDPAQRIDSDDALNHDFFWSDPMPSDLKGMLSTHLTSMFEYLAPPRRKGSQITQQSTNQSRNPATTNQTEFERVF

`CC(=O)c1c(C)c2cnc(Nc3ccc(N4CCNCC4)cn3)nc2n(C2CCCC2)c1=O` [PALBOCICLIB]: the IC50 is more than 10000 nM with A549, more than 10000 nM in the assay with HCT-116 [1] and 9300 nM with HT-29 [2].
Take `CCN1CCN(c2ccc(Nc3ncc4nc(C(C)=O)c(=O)n(C5CCCC5)c4n3)c(CO)c2)CC1`: the values for the IC50 (in assay [3]; on CDK6/cyclin D1) were 110 nM and 1210 nM, respectively.
For the molecule `COc1cc(N2CCN(C)CC2)ccc1Nc1ncc2nc(C(C)=O)c(=O)n(C3CCCC3)c2n1`, the IC50 in assay [3] worked out at 4480 nM; on CDK6/cyclin D1, 4740 nM.
As to `CC(=O)c1nc2cnc(Nc3ccc(N4CCN(C)CC4)cc3)nc2n(C2CCCC2)c1=O`, the IC50 in assay [3] was 36.6 nM; in the assay on A549, 3600 nM; against CDK7/Cyclin H/MNAT1 it was more than 10000 nM; in the assay with HCT-116 [1], 2400 nM; in [4], more than 10000 nM; in the assay on MDA-MB-231 [5], 2200 nM. The IC50 with HT-29 [2] was 1500 nM; on CDK6/cyclin D1 it was 53.4 nM; in assay [6], more than 10000 nM; on CDK9/cyclin T1, more than 10000 nM.
For `CCN1CCN(c2ccc(Nc3ncc4nc(C(C)=O)c(=O)n(C5CCCC5)c4n3)cc2)CC1`, the Activity in the assay on HT-29 [7] is listed as 1.21%; in the assay on MDA-MB-231 [9], 3.55%; in the assay with HCT-116 [10] it was 2.16%; with MDA-MB-231 [11], 6.67%; in the assay on MDA-MB-231 [12], 0.86%; with HT-29 [13], 12.67%. Also, the Activity in the assay on HT-29 [16] was 15.42%; in the assay on HCT-116 [17], 9.54%; with HT-29 [18], 14.86%; in the assay on MDA-MB-231 [20], 4.16%; in the assay with HCT-116 [21], 13.39%; in the assay with HCT-116 [22], 14.39%. Moreover, the Activity in the assay on HT-29 [23] came to 0.99%; in the assay with HCT-116 [24], 0.57%; in the assay with MDA-MB-231 [25] it was 1.75%; in the assay on HT-29 [26], 15.39%; in the assay with MDA-MB-231 [27], 3.21%; with HCT-116 [29] it was 8.42%. Besides, the viability at 1 µM amounted to 81.5% in the assay on HCT-116 [8], 91.8% with MDA-MB-231 [15] and 70.7% in the assay on HT-29 [30]. For the same molecule, the viability at 5 µM came to 68.7% in the assay on HT-29 [14], 70.2% in the assay with HCT-116 [19] and 88% in the assay on MDA-MB-231 [28]. In addition, the IC50 is 16.7 nM in assay [3]; 9200 nM in the assay with A549; more than 10000 nM against CDK7/Cyclin H/MNAT1; 1900 nM in the assay with HCT-116 [1]; more than 10000 nM in assay [4]; 1900 nM in the assay with MDA-MB-231 [5]. Also, the IC50 was found to be 4000 nM in the assay with HT-29 [2], 30.5 nM at CDK6/cyclin D1, 7940 nM in [6] and 8040 nM against CDK9/cyclin T1.
For the molecule `CC(=O)c1nc2cnc(Nc3ccc(N4CCN(C5CCCC5)CC4)cc3)nc2n(C2CCCC2)c1=O`, the IC50 in [3] was determined as 36.3 nM; against CDK6/cyclin D1 it was 138 nM.
The corresponding values for `CCN1CCN(c2ccc(Nc3ncc4nc(C(C)=O)c(=O)n(C5CCCC5)c4n3)c(N)c2)CC1` are 7890 nM and 7080 nM.
Taken in the same sequence, the figures for `O=c1c(-c2ccco2)nc2cnc(Nc3ccc(N4CCOCC4)cc3)nc2n1C1CCCC1` were more than 10000 nM and more than 10000 nM.
In [4], `CN[C@@H]1C[C@H]2O[C@@](C)([C@@H]1OC)n1c3ccccc3c3c4c(c5c6ccccc6n2c5c31)C(=O)NC4` [STAUROSPORINE] registered an IC50 of 6.6 nM.
As to `CC(=O)c1nc2cnc(Nc3ccc(N4CCCC4)cc3)nc2n(C2CCCC2)c1=O`, the IC50 is 368 nM in assay [3] and more than 10000 nM on CDK6/cyclin D1.
The corresponding values for `CC(=O)c1nc2cnc(Nc3ccc(N4CCCCC4)cc3)nc2n(C2CCCC2)c1=O` are 64.9 nM and 564 nM.
The corresponding values for `CCN1CCN(c2ccc(Nc3ncc4nc(-c5ccco5)c(=O)n(C5CCCC5)c4n3)cc2)CC1` are 236 nM and 940 nM.
As for `CC(=O)c1nc2cnc(Nc3ccc(N4CCC(N5CCN(C)CC5)CC4)cc3)nc2n(C2CCCC2)c1=O`, the figures for the 50% inhibitory concentration (IC50) (in [3]; against CDK6/cyclin D1) were 30.1 nM and 48 nM, respectively.
The corresponding values for `CC(=O)c1nc2cnc(Nc3ccc(N4CCOCC4)cc3)nc2n(C2CCCC2)c1=O` are 74.4 nM and 168 nM.
